Reference: ChEMBL document CHEMBL4177654, “Synthesis, antifungal and antitumor activity of two new types of imidazolin-2-ones” (Bioorg Med Chem, 2017)
Calls of active or inactive are those of the source. The rule behind the calls is not given here.

What was measured:
[1] = test system: Botrytis cinerea; assay: Antifungal activity against Botrytis cinerea assessed as inhibition of spore germination at 50 ug/ml after 6 hrs by microscopic analysis relative to control; assay type: functional
[2] = test system: Botrytis cinerea; assay: Antifungal activity against Botrytis cinerea assessed as inhibition of mycelium growth at 25 ug/ml after 48 hrs relative to control; assay type: functional
[3] = Inhibition of mTORC2 in human HeLa cells assessed as decrease in AKT phosphorylation at S473 residue preincubated for 1 hr followed by EGF1 stimulation by ELISA; assay type: cell-based
[4] = test system: HeLa; assay: Inhibition of mTORC2 in human HeLa cells assessed as decrease in AKT phosphorylation at S473 residue preincubated for 1 hr followed by EGF1 stimulation after 30 mins by Western blot analysis; assay type: cell-based
[5] = test system: Botrytis cinerea; assay: Antifungal activity against Botrytis cinerea assessed as inhibition of mycelium growth at 5 ug/ml after 48 hrs relative to control; assay type: functional
[6] = test system: Botrytis cinerea; assay: Antifungal activity against Botrytis cinerea assessed as inhibition of spore germination at 5 ug/ml after 6 hrs by microscopic analysis relative to control; assay type: functional

Compound | inhibition at 50 µg/mL [1] [%] | inhibition at 25 µg/mL [2] [%] | further results
C=C(C)n1c(=O)n(C(=O)c2ccc(Cl)cc2)c2cc(Br)cnc21 | 28.6 | 54 | 
C=C(C)n1c(=O)n(C(=O)c2ccccc2Cl)c2cc([N+](=O)[O-])ccc21 | 59.2 |  | 
C=C(C)n1c(=O)n(C(=O)CC)c2cc([N+](=O)[O-])ccc21 | 45.2 |  | 
C=C(C)n1c(=O)n(C(=O)CCCCC)c2cc([N+](=O)[O-])ccc21 | 42.9 | 5.65 | 
C=C(C)n1c(=O)n(C(=O)CCCCCCC)c2cc([N+](=O)[O-])ccc21 | 30.7 |  | 
C=C(C)n1c(=O)n(C(C)=O)c2cc([N+](=O)[O-])ccc21 | 85.2 | 33.5 | 
C=C(C)n1c(=O)n(C(=O)CCCC)c2cc([N+](=O)[O-])ccc21 | 48.5 | 7.26 | 
C=C(C)n1c(=O)n(C(=O)CCCCCCC)c2cc(Br)cnc21 | 49 | 51.3 | 
NC1(c2ccc(-c3nc4ccn5c(=O)[nH]nc5c4cc3-c3ccccc3)cc2)CCC1 [MK-2206] |  |  | IC50 [3]: 0.0228 µM
C=C(C)n1c(=O)n(C(=O)CCCCC)c2ccc([N+](=O)[O-])cc21 | 55.9 |  | 
C=C(C)n1c(=O)n(C(=O)CCC)c2ccc([N+](=O)[O-])cc21 | 52.4 |  | 
C=C(C)n1c(=O)n(C(=O)CCC)c2cc([N+](=O)[O-])ccc21 | 46.7 |  | 
C=C(C)n1c(=O)n(C(=O)CCCCCC)c2cc(Br)cnc21 | 59.2 | 44.9 | 
C=C(C)n1c(=O)n(C(=O)CC)c2cc(Br)cnc21 | 98 | 94.2 | 
C=C(C)n1c(=O)n(C(=O)Cc2ccccc2)c2cc(Br)cnc21 | 59.2 | 66.7 | inhibition [4]: Active
C=C(C)n1c(=O)n(C(=O)CC)c2ccc([N+](=O)[O-])cc21 | 49.6 | 8.72 | 
C=C(C)n1c(=O)n(C(=O)c2cccc(C)c2)c2cc(Br)cnc21 | 17.4 | 41.5 | 
COC(=O)Nc1nc2ccccc2[nH]1 [CARBENDAZIM] |  |  | inhibition at 5 µg/mL [5]: 94.2%
C=C(C)n1c(=O)n(C(=O)CCC)c2cc(Br)cnc21 | 99 | 97.3 | 

Compound | inhibition at 50 µg/mL [1] [%] | inhibition at 25 µg/mL [2] [%] | further results
C=C(C)n1c(=O)n(C(=O)C2CC2)c2cc(Br)cnc21 | 78.6 | 92.8 | 
C=C(C)n1c(=O)n(C(=O)c2cccc(C)c2)c2cc([N+](=O)[O-])ccc21 | 60.2 |  | 
C=C(C)n1c(=O)n(C(=O)c2cccc(C)c2)c2ccc([N+](=O)[O-])cc21 | 65.8 | 11.4 | 
C=C(C)n1c(=O)n(C(=O)c2ccccc2)c2cc(Br)cnc21 | 38.8 | 37.2 | 
C=C(C)n1c(=O)n(C(=O)CCCCC)c2cc(Br)cnc21 | 23.5 | 42.5 | 
C=C(C)n1c(=O)n(C(=O)c2ccccc2C)c2cc(Br)cnc21 | 49 | 53.7 | 
C=C(C)n1c(=O)n(C(=O)CCCC)c2cc(Br)cnc21 | 59.2 | 60.1 | 
C=C(C)n1c(=O)n(C(=O)CCl)c2cc(Br)cnc21 | 74.9 | 69 | inhibition [4]: Active
C=C(C)n1c(=O)n(C(=O)CCCCCCC)c2ccc([N+](=O)[O-])cc21 | 32.5 |  | 
C=C(C)n1c(=O)n(C(=O)c2ccccc2Cl)c2cc(Br)cnc21 | 13.3 | 17.5 | 
C=C(C)n1c(=O)n(C(=O)c2cccc(Cl)c2)c2ccc([N+](=O)[O-])cc21 | 86.2 | 16.7 | 
C=C(C)n1c(=O)n(C(C)=O)c2ccc([N+](=O)[O-])cc21 | 100 | 97.7 | 
C=C(C)n1c(=O)n(C(=O)c2cccc(Cl)c2)c2cc(Br)cnc21 | 59.2 | 55.8 | 
C=C(C)n1c(=O)n(C(=O)c2cccc(Cl)c2)c2cc([N+](=O)[O-])ccc21 | 63.4 | 10.7 | 
C=C(C)n1c(=O)n(C(=O)c2ccccc2C)c2cc([N+](=O)[O-])ccc21 | 60.8 |  | 
C=C(C)n1c(=O)n(C(=O)c2ccccc2Cl)c2ccc([N+](=O)[O-])cc21 | 72.1 | 13.6 | 
CO/C=C(/C(=O)OC)c1ccccc1Oc1cc(Oc2ccccc2C#N)ncn1 [AZOXYSTROBIN] |  |  | inhibition at 5 µg/mL [6]: 92.1%; inhibition at 5 µg/mL [5]: 98.8%
C=C(C)n1c(=O)n(C(=O)CCCC)c2ccc([N+](=O)[O-])cc21 | 51.8 |  | 
C=C(C)n1c(=O)n(C(=O)c2ccccc2C)c2ccc([N+](=O)[O-])cc21 | 68.3 | 18.5 | 
